Test results taken from PubChem BioAssay AID1963841 (Molecular Pharmacology Branch, DTP, NCI, 2024).

System: 439559-082-T-J2-PDC spheroid viability
Assay: Anticancer human tumor 439559-082-T-J2-PDC patient-derived colon adenocarcinoma cell line growth inhibition [POLQ]
Details: spheroids with HUVEC and MSC; for IC50: curve of first compound; for viability, T/C: stronger effect = lower value
Description: Multicellular complex tumor spheroid response to Polymerase (POL) inhibitors (novobiocin, ART-558, RP6685) in combination with a variety of drugs and investigational agents in selected tumor cell lines
The POL inhibitors (novobiocin, ART-558, and RP6685) were evaluated both individually and in combination with standard of care and investigational anticancer small molecules within a complex spheroid model of solid tumors. . Complex spheroids include a stromal component modeled by human endothelial cells (HUVEC) and fibroblasts modeled by human mesenchymal stem cells (MSCs). The concentration ranges selected for each drug and investigational agent were based upon clinically achievable concentrations if the clinical Cmax of the agent was known.
Compounds. The drugs and investigational agents: novobiocin (NSC847541), ART-558 (NSC835418), RP-6685 (NSC848927), peposertib (NSC802822), ceralasertib (NSC780249), elimusertib (NSC800525), camonsertib (NSC841442), AZD-1390 (NSC803789), olaparib (NSC753686), talazoparib (NSC767125), rucaparib (NSC756644), sotorasib (NSC818433), MRTX-1133 (NSC836407), SN-38 (NSC673596), topotecan (NSC609699), epotoside (NSC141540), doxorubicin (NSC123127), gemcitabine (NSC613327), 5-fluorouracil (NSC19893), paclitaxel (NSC125973), vemurafenib (NSC761431), MSA-2 (NSC828583), SN-011 (NSC837082), adavosertib (NSC754352), prexasertib (NSC758257), carboplatin (NSC241240) and oxaliplatin (NSC266046), were obtained from the National Cancer Institute (NCI) Developmental Therapeutics Program Chemical Repository (21). The FDA-approved anticancer drug set is available from the Developmental Therapeutics Program at https://dtp.cancer.gov/organization/dscb/obtaining/. […] The stock solutions were prepared in dimethyl sulfoxide (DMSO, Sigma-Aldrich, St. Louis, MO, cat. D2650), except for the platinum compounds which were prepared in saline (Quality Biological, Gaithersburg, MD, cat. 114-055-101), at 800-fold the tested concentration and stored at -70 degrees C prior to their use. All drugs and investigational agents were tested over a range starting from a high concentration at or near the clinical Cmax and decreasing in half-log increments. If the clinical Cmax for an agent had not been determined, the highest concentration tested was 10 microM, except for SN-38, which was tested at a high concentration of 1 microM.
Cell Culture. All cells were maintained in an incubator at 37 degrees C and 5% CO2 with 95% humidity. The PDC lines were cultured according to standard operating procedures established by the NCI PDMR (https://pdmr.cancer.gov). Table 3 of the manuscript, lists the cell lines along with the number of the three cell types plated to form the mct-spheroids and media for tumor cell growth. After thawing, all PDC lines, except 997537-175-T-J1-PDC and 415267-285-R-J2-PDC, were cultured in Matrigel-coated flasks prepared with a working solution of 1X Ham's F-12 nutrient mix, without supplementation (Thermo Fisher Scientific, cat. 11765054), 100 U/mL penicillin-streptomycin (Thermo Fisher Scientific, cat. 15140122), and 2.5% Matrigel (Corning Inc., Corning, NY, cat. 354248) for the first three passages. The two PDC lines 997537-175-T-J1-PDC and 415267-285-R-J2-PDC were cultured on uncoated flasks. The 857933-349-R-J2-PDC line was cultured in 6C/Colon 1B media containing advanced DMEM/F-12 (Thermo Fisher Scientific, cat. 12634028), 10 mM HEPES (Thermo Fisher Scientific, cat. 15630080), 1X GlutaMAX supplement (Thermo Fisher Scientific, cat. 35050061), 0.1 mg/mL primocin (InvivoGen, San Diego, CA, cat. ant-pm-2), 10% defined fetal bovine serum, heat inactivated (HyClone Laboratories Inc., Logan, UT, cat. SH30070.03HI), 50% L-WRN conditioned media (ATCC, cat. CRL-3276), 1.25 mM N-Acetyl-L-cysteine (Sigma-Aldrich, cat. A9165), 10 mM nicotinamide (Sigma-Aldrich, cat. N0636), 1X B-27 supplement (Thermo Fisher Scientific, cat. 17504044), 1X N-2 supplement (Thermo Fisher Scientific, cat. […]
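Note: spheroids exposed to compounds for seven days before readout.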
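Throughout, for viability, T/C: 100% = DMSO vehicle control viability.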

Which results are given for C#Cc1c(F)ccc2cc(O)cc(-c3ncc4c(N5CC6CCC(C5)N6)nc(OCC56CCCN5CC(F)C6)nc4c3F)c12 (configuration not stated) + COC1C(OC(N)=O)C(O)C(Oc2ccc3c(O)c(NC(=O)c4ccc(O)c(CC=C(C)C)c4)c(=O)oc3c2C)OC1(C)C?
IC50 (second compound 0.0316 µM): > 10 µM; IC50 (second compound 0.1 µM): > 10 µM; IC50 (second compound 0.316 µM): > 10 µM; IC50 (second compound 1 µM): > 10 µM; IC50 (second compound 3.16 µM): > 10 µM; IC50 (second compound 10 µM): > 10 µM; viability, T/C (second compound 0.0316 µM, first compound 0.0316 µM): 87.5%; viability, T/C (second compound 0.0316 µM, first compound 0.1 µM): 90.6%; viability, T/C (second compound 0.0316 µM, first compound 0.316 µM): 73.8%; viability, T/C (second compound 0.0316 µM, first compound 1 µM): 69.2%; viability, T/C (second compound 0.0316 µM, first compound 3.16 µM): 58.4%; viability, T/C (second compound 0.0316 µM, first compound 10 µM): 50.3%; viability, T/C (second compound 0.1 µM, first compound 0.0316 µM): 96%; viability, T/C (second compound 0.1 µM, first compound 0.1 µM): 89.1%; viability, T/C (second compound 0.1 µM, first compound 0.316 µM): 80%; viability, T/C (second compound 0.1 µM, first compound 1 µM): 68.9%; viability, T/C (second compound 0.1 µM, first compound 3.16 µM): 59.7%; viability, T/C (second compound 0.1 µM, first compound 10 µM): 52.1%; viability, T/C (second compound 0.316 µM, first compound 0.0316 µM): 101%; viability, T/C (second compound 0.316 µM, first compound 0.1 µM): 84.8%; viability, T/C (second compound 0.316 µM, first compound 0.316 µM): 75.8%; viability, T/C (second compound 0.316 µM, first compound 1 µM): 67.7%; viability, T/C (second compound 0.316 µM, first compound 3.16 µM): 61.1%; viability, T/C (second compound 0.316 µM, first compound 10 µM): 51.1%; viability, T/C (second compound 1 µM, first compound 0.0316 µM): 96.5%; viability, T/C (second compound 1 µM, first compound 0.1 µM): 88%; viability, T/C (second compound 1 µM, first compound 0.316 µM): 75%; viability, T/C (second compound 1 µM, first compound 1 µM): 63.9%; viability, T/C (second compound 1 µM, first compound 3.16 µM): 57.4%; viability, T/C (second compound 1 µM, first compound 10 µM): 49.8%; viability, T/C (second compound 3.16 µM, first compound 0.0316 µM): 97.2%; viability, T/C (second compound 3.16 µM, first compound 0.1 µM): 93.9%; viability, T/C (second compound 3.16 µM, first compound 0.316 µM): 70.4%; viability, T/C (second compound 3.16 µM, first compound 1 µM): 63.9%; viability, T/C (second compound 3.16 µM, first compound 3.16 µM): 60.6%; viability, T/C (second compound 3.16 µM, first compound 10 µM): 49%; viability, T/C (second compound 10 µM, first compound 0.0316 µM): 103%; viability, T/C (second compound 10 µM, first compound 0.1 µM): 92.1%; viability, T/C (second compound 10 µM, first compound 0.316 µM): 73.5%; viability, T/C (second compound 10 µM, first compound 1 µM): 67.2%; viability, T/C (second compound 10 µM, first compound 3.16 µM): 64.4%; viability, T/C (second compound 10 µM, first compound 10 µM): 49.6%
